According to ChEMBL document CHEMBL5614418, “Discovery of novel dihydropyrrolidone-thiadiazole compound crosstalk between the YycG/F two-component regulatory pathway and cell membrane homeostasis to combat methicillin-resistant Staphylococcus aureus” (Eur J Med Chem, 2024):
Converted amounts (≈) assume the structure as drawn. The source made the active and inactive calls. The rule behind the calls is not given here.

Key:
[1] = test system: Staphylococcus epidermidis; assay: Induction of matured biofilm eradication in Staphylococcus epidermidis SE1457 assessed as log reduction in bacterial count in biofilm at 8 times MIC incubated for 48 hrs in presence of daptomycin by agar plate method; assay type: functional
Staphylococcus aureus [2] = assay: Inhibition of bacterial growth in methicillin resistant Staphylococcus aureus USA300 at 1/2 MIC concentration measured upto 16 hrs; assay type: functional, organism-based
Staphylococcus aureus [3] = assay: Antibacterial activity against methicillin sensitive Staphylococcus aureus SA113 assessed as increase in membrane permeability at 1 to 4 times MIC incubated for 30 mins by PI staining based fluorescence assay; assay type: functional, organism-based
[4] = test system: Staphylococcus epidermidis; assay: Induction of matured biofilm eradication in Staphylococcus epidermidis SE1457 assessed as reduction in bacterial survival in biofilm at 8 times MIC incubated for 48 hrs in presence of daptomycin by SYTO 9 staining based confocal fluorescence microscopic analysis; assay type: functional
[5] = Toxicity in BALB/c mouse assessed as change in AST level at 50 mg/kg, ip measured after 1 to 3 days; assay type: organism-based; conditions: in vivo, time 1-3 day
[6] = Toxicity in BALB/c mouse assessed as change in ALT level at 50 mg/kg, ip measured after 1 to 3 days; assay type: organism-based; conditions: in vivo, time 1-3 day
Staphylococcus aureus [7] = assay: Antibacterial activity against methicillin sensitive Staphylococcus aureus SA113 assessed as fold increase in MIC in presence of phosphatidylcholine by chequerboard microdilution assay; assay type: functional
Escherichia coli = assay: Antibacterial activity against Escherichia coli; assay type: functional, organism-based
[8] = test system: Staphylococcus epidermidis; assay: Antibacterial activity against methicillin resistant Staphylococcus epidermidis SE1457 infected in BALB/c mouse wound model assessed as log reduction in wound bacterial load at 20 mg/kg, ip administered every 12 hrs for 3 times and measured after 48 hrs; assay type: functional
Staphylococcus aureus [9] = assay: Induction of resistance development in methicillin sensitive Staphylococcus aureus SA113 assessed as fold increase in MIC at 1/2 MIC incubated for 16 hrs after 20 serial passages; assay type: functional
Staphylococcus aureus [10] = assay: Induction of matured biofilm eradication in methicillin resistant Staphylococcus aureus YUSA145 assessed as log reduction in bacterial count in biofilm at 8 MIC incubated for 48 hrs in presence of daptomycin by agar plate method; assay type: functional
Staphylococcus aureus [11] = assay: Synergistic antibacterial activity against methicillin resistant Staphylococcus aureus USA300 assessed as fold increase in MIC in presence of daptomycin; assay type: functional
[12] = target: T1, Sensor protein kinase WalK (Staphylococcus aureus, UniProt Q9RDT3); assay: Inhibition of Staphylococcus aureus YycG expressed in Escherichia coli preincubated for 30 mins followed by ATP addition and measured after 30 mins by kinase-Glo luminescent assay
T1 sequence (Q9RDT3 whole entry): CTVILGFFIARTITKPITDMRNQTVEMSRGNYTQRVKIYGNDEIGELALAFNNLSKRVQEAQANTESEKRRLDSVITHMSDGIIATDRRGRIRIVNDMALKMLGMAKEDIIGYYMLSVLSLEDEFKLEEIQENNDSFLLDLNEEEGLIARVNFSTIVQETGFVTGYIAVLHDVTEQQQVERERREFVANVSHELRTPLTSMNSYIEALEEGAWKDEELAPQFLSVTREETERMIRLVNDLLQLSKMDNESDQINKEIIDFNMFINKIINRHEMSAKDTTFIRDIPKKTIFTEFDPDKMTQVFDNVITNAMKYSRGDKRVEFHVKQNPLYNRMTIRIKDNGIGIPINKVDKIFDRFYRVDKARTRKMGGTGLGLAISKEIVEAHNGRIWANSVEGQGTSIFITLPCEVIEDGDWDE

Staphylococcus aureus [13] = assay: Antibacterial activity against methicillin sensitive Staphylococcus aureus SA113 by broth microdilution method; assay type: functional
Staphylococcus aureus [14] = assay: Inhibition of bacterial growth in methicillin resistant Staphylococcus aureus USA300 at MIC concentration measured upto 16 hrs; assay type: functional
Staphylococcus aureus [15] = assay: Inhibition of biofilm formation in methicillin resistant Staphylococcus aureus YUSA145 at 1/2 MIC incubated for 16 hrs by SEM analysis; assay type: functional, organism-based
Staphylococcus aureus [16] = assay: Antibacterial activity against methicillin resistant Staphylococcus aureus USA300 infected in BALB/c mouse pneumonia model assessed as increase in mouse survival rate at 20 mg/kg, ip administered every 12 hrs for 3 times and measured after 48 hrs; assay type: functional, organism-based
Staphylococcus aureus [17] = assay: Inhibition of bacterial growth in methicillin sensitive Staphylococcus aureus SA113 at MIC concentration measured upto 16 hrs; assay type: functional
Staphylococcus aureus [18] = assay: Downregulation of pflA gene expression level in methicillin sensitive Staphylococcus aureus SA113 at 1/2 MIC by RT-qPCR analysis; assay type: functional
Staphylococcus aureus [19] = assay: Downregulation of pflB expression level in methicillin sensitive Staphylococcus aureus SA113 at 1/2 MIC incubated for 2 hrs by MS/MS analysis; assay type: functional
Staphylococcus aureus [20] = assay: Bactericidal activity against Staphylococcus aureus SA113; assay type: functional
Staphylococcus aureus [21] = assay: Antibacterial activity against methicillin resistant Staphylococcus aureus USA300 by broth microdilution method; assay type: functional
Staphylococcus aureus [22] = assay: Antibacterial activity against methicillin sensitive Staphylococcus aureus SA113 assessed as fold increase in MIC in presence of phosphatidyl glycerol by chequerboard microdilution assay; assay type: functional
Staphylococcus aureus [23] = assay: Antibacterial activity against methicillin resistant Staphylococcus aureus USA300 infected in BALB/c mouse wound model assessed as log reduction in wound bacterial load at 20 mg/kg, ip administered every 12 hrs for 3 times and measured after 48 hrs; assay type: functional
[24] = test system: Staphylococcus epidermidis; assay: Induction of matured biofilm eradication in Staphylococcus epidermidis SE1457 assessed as log reduction in bacterial count in biofilm at 8 times MIC incubated for 48 hrs by agar plate method; assay type: functional
[25] = test system: Staphylococcus epidermidis; assay: Synergistic antibacterial activity against Staphylococcus epidermidis SE1457 in presence of vancomycin; assay type: functional, organism-based
Staphylococcus aureus [26] = assay: Antibacterial activity against methicillin resistant Staphylococcus aureus YUSA151; assay type: functional
Staphylococcus aureus [27] = assay: Antibacterial activity against methicillin resistant Staphylococcus aureus YUSA145; assay type: functional
Pseudomonas aeruginosa = assay: Antibacterial activity against Pseudomonas aeruginosa; assay type: functional, organism-based
[28] = test system: Staphylococcus epidermidis; assay: Bactericidal activity against Staphylococcus epidermidis SE1457 assessed as planktonic cells killing by measuring log reduction in bacterial count at 2 to 8 times MIC measured after 24 hrs; assay type: functional
Staphylococcus aureus [29] = assay: Downregulation of acetyl-CoA level in methicillin sensitive Staphylococcus aureus SA113 at 1/2 MIC incubated for 30 mins; assay type: functional
Staphylococcus aureus [30] = assay: Induction of matured biofilm eradication in methicillin resistant Staphylococcus aureus YUSA145 assessed as log reduction in bacterial count in biofilm at 8 MIC incubated for 48 hrs by agar plate method; assay type: functional
[31] = Toxicity in BALB/c mouse assessed as change in CREA level at 50 mg/kg, ip measured after 1 to 3 days; assay type: organism-based; conditions: in vivo, time 1-3 day
[32] = test system: Staphylococcus epidermidis; assay: Inhibition of biofilm formation in Staphylococcus epidermidis SE1457 at 1/2 MIC incubated for 16 hrs by SEM analysis; assay type: functional, organism-based
Staphylococcus aureus [33] = assay: Antibacterial activity against methicillin sensitive Staphylococcus aureus SA113 assessed as fold increase in MIC in presence of peptidoglycan by chequerboard microdilution assay; assay type: functional
Staphylococcus aureus [34] = assay: Downregulation of pflA expression level in methicillin sensitive Staphylococcus aureus SA113 at 1/2 MIC incubated for 2 hrs by MS/MS analysis; assay type: functional
Staphylococcus aureus [35] = assay: Synergistic bactericidal activity against Staphylococcus aureus USA300 assessed as planktonic cells killing by measuring log reduction in bacterial count at 8 times MIC measured after 24 hrs in presence of daptomycin; assay type: functional

## O=C(C1=C(O)C(=O)N(c2nnc(SCc3ccccc3Cl)s2)C1c1ccccc1O)c1cc2ccccc2o1 (stereo not drawn)
[1]
  log(activity): 3
Staphylococcus aureus [2]
  growth inhibition (GI): Active
Staphylococcus aureus [3]
  Activity: Active
[4]
  Activity: >70%
[5]
  Activity: Non-Toxic
[6]
  Activity: Non-Toxic
Staphylococcus aureus [7]
  fold change (FC): 16
Escherichia coli
  Activity: Active
[8]
  log(activity): 1
Staphylococcus aureus [9]
  Activity: inactive
Staphylococcus aureus [10]
  log(activity): 3
Staphylococcus aureus [11]
  fold change (FC): 2
[12]
  IC50: 19.5 µM
Staphylococcus aureus [13]
  MIC50: ≥ 50 µM
  MIC90: ≥ 50 µM
Staphylococcus aureus [14]
  inhibition (INH): 100%
Staphylococcus aureus [15]
  inhibition: Active
Staphylococcus aureus [16]
  Activity: Active
Staphylococcus aureus [17]
  inhibition (INH): 100%
Staphylococcus aureus [18]
  Activity: Active
Staphylococcus aureus [19]
  Activity: Active
Staphylococcus aureus [20]
  MBC: 25 µM (≈ 14.4 µg/mL)
Staphylococcus aureus [21]
  MIC: 12.5 µM (≈ 7.2 µg/mL)
Staphylococcus aureus [22]
  fold change (FC): 16
Staphylococcus aureus [23]
  log(activity): 1
[24]
  log(activity): 1
[25]
  Activity: inactive
Staphylococcus aureus [26]
  MIC: 12.5 µM (≈ 7.2 µg/mL)
Staphylococcus aureus [27]
  MIC: 12.5 µM (≈ 7.2 µg/mL)
Pseudomonas aeruginosa
  Activity: Active
[28]
  log(activity): 2.7
Staphylococcus aureus [29]
  Activity: Active
Staphylococcus aureus [30]
  log(activity): 1
[31]
  Activity: Non-Toxic
[32]
  inhibition: Active
Staphylococcus aureus [33]
  fold change (FC): 16
Staphylococcus aureus [34]
  Activity: Active
Staphylococcus aureus [35]
  log(activity): 4.5
